Patent publication US12133527B2, “Insect and tick repellent formulations and methods of use thereof” (priority 2017, dated 2024)

What was measured:
skin of human subjects = assay: Human repeat insult patch test for skin irritation and sensitization; format: in vivo; conditions: positive control
Description: To determine the irritation and sensitization (contact allergy) potential of a test material after repeated application to the skin of human subjects three studies were conducted using the formulations of the invention comprising 2-undecanone, soybean oil, polysorbate 20, sorbitan oleate, oil of lemon eucalyptus and denatured alcohol (e.g., test materials).
Test materials to be tested under occlusive conditions were placed on an 8-millimeter aluminum Finn Chamber® (Epitest Ltd. Oy, Tuusula, Finland) supported on Scanpor® Tape (Norgesplaster A/S, Kristiansand, Norway) or an 8 mm filter paper coated aluminum Finn Chamber® AQUA supported on a thin flexible transparent polyurethane rectangular film coated on one side with a medical grade acrylic adhesive, consistent with adhesive used in state-of the-art hypoallergenic surgical tapes or a 7 mm IQ-ULTRA® closed cell system which is made of additive-free polyethylene plastic foam with a filter paper incorporated (It is supplied in units of 10 chambers on a hypoallergenic nonwoven adhesive tape; the width of the tape is 52 mm and the length is 118 mm) or other equivalents. Materials to be tested under semi-occlusive conditions were placed on a test strip with a Rayon/Polypropylene pad or on a 7.5 mm filter paper disc affixed to a strip of hypoallergenic tape (Johnson & Johnson 1 inch First Aid Cloth Tape).
Test materials to be tested in an open patch were applied and rubbed directly onto the back of the subject. Approximately 0.02-0.05 mL (in case of liquids) and/or 0.02-0.05 gm (in case of solids) of the test material was used for the studies. Liquid test material was dispensed on a 7.5 mm paper disk, which fit in the Finn Chamber.
Subjects were requested to bathe or wash as usual before arrival at the facility. Patches containing the test material were then affixed directly to the skin of the intrascapular regions of the back, to the right or left of the midline and subjects were dismissed with instructions not to wet or expose the test area to direct sunlight. Patches remained in place for 48 hours after the first application. Subjects were instructed not to remove the patches prior to their 48 hour scheduled visit. Thereafter, subjects were instructed to remove patches 24 hours after application for the remainder of the study.
This procedure was repeated until a series of nine (9) consecutive, 24-hour exposures had been made three (3) times a week for three (3) consecutive weeks. Prior to each reapplication, the test sites were evaluated by trained laboratory personnel. Following a 10-14 day rest period a retest/challenge dose was applied once to a previously unexposed test site.
Test sites were evaluated by trained laboratory personnel 48 and 96 hours after application.
In the event of an adverse reaction, the area of erythema and edema were measured. Edema was estimated by the evaluation of the skin with respect to the contour of the unaffected normal skin. Subjects were instructed to report any delayed reactions that might occur after the final reading.
Scoring scale and definition of symbols shown below are based on the scoring scheme according to the International Contact Dermatitis Research Group scoring scale [Rietschel, R. L., Fowler, J. F., Ed., Fisher's Contact Dermatitis (fourth ed.). […]

insect or tick = assay: Duration of repellency of 2-undecanone alone (statement, no method); conditions: unformulated

For `CCCCCCCCCCCCOS(=O)(=O)[O-].[Na+]` [2.0% Sodium Lauryl Sulfate Solution, Sodium Lauryl Sulfate], the “subjects with a Grade 1 delayed reaction” value (skin of human subjects; Study I) was 4 subjects, the “subjects with a Grade 1 reaction” value (skin of human subjects; Study I) was 35 subjects and the “subjects with a Grade 1 reaction” value (skin of human subjects; Study II) was 10 subjects. For the same compound, the “subjects with Grade 1 reaction” value (skin of human subjects; Study III) was “Two” and the “subjects with Grade 2 reaction” value (skin of human subjects; Study III) was “two”.
In the case of `CCCCCCCCCC(C)=O` [Soybean 2-undecanone, 2-undecanone], the duration of repellency (insect or tick) was “less than 30 min”.
